In patent US20080058330A1, “Compounds and Combinations Thereof for Inhibiting Beta-Amyloid Production and Methods of Use Thereof” (Roskamp Research LLC, priority 2006, published 2008):

What was measured:
7W WT APP751 CHO cells [1] = experiment: Screening of NF-kB activation inhibitors, Aβ1-40 and Aβ1-42 ELISA (Example 3); type: cell-based, Chinese hamster; conditions: 24 hours (FIG. 6)
Description: Each compound was dissolved in DMSO. 7W WT APP751 CHO cells overexpressing APP751 were plated into 96-well culture plates in 200 μL of culture medium. Each compound from the library was added to confluent cells to a final concentration of 500 nM, 1 μM, 5 μM, 10 μM and/or 30 μM. After 24 hours of treatment, culture medium was collected and dissolved 10-fold and 2-fold for measuring the level of Aβ1-40 and Aβ1-42, respectively. Aβ1-40 and Aβ1-42 were determined using commercially available ELISAs (Biosource, CA), following the recommendations of the manufacturer.

7W WT APP751 CHO cells [2] = experiment: Screening of dihydropyridine compounds (Maybridge), Aβ1-40 and Aβ1-42 ELISA (Example 2); type: cell-based, Chinese hamster; conditions: 30 μM, 24 hours (FIG. 5A, 5B)
Description: Dihydropyridine compounds were obtained from Maybridge (England). Each compound was dissolved in DMSO. 7W WT APP751 CHO cells overexpressing APP751 were plated into 96-well culture plates in 200 μL of culture medium. Each compound from the library was added to confluent cells to a final concentration of 30 μM. After 24 hours of treatment, culture medium was collected and dissolved 10-fold and 2-fold for measuring the level of Aβ1-40 and Aβ1-42, respectively. Aβ1-40 and Aβ1-42 were determined using commercially available ELISAs (Biosource, CA), following the recommendations of the manufacturer.

Nc1ccc2ncnc(NCCc3ccc(Oc4ccccc4)cc3)c2c1 [6-amino-4-(4-phenoxyphenylethylamino)quinazoline]
significantly decreased: concentration of Aβ1-40 compared to controls (7W WT APP751 CHO cells [1]; 500 nM) | concentration of Aβ1-42 compared to controls (7W WT APP751 CHO cells [1]; 500 nM) | concentration of total β-amyloid compared to controls (7W WT APP751 CHO cells [1]; 500 nM) | concentration of Aβ1-40 compared to controls (7W WT APP751 CHO cells [1]; 5 μM) | concentration of Aβ1-42 compared to controls (7W WT APP751 CHO cells [1]; 5 μM) | concentration of total β-amyloid compared to controls (7W WT APP751 CHO cells [1]; 5 μM)

COC(=O)C1=C(C)NC(C)=C(C(=O)OCCCN2CCC(c3ccccc3)(c3ccccc3)CC2)[C@H]1c1cccc([N+](=O)[O-])c1.Cl [(S)-(+)-niguldipine]
significantly decreased: concentration of Aβ1-40 compared to controls (7W WT APP751 CHO cells [1]; 1 μM) | concentration of Aβ1-42 compared to controls (7W WT APP751 CHO cells [1]; 1 μM) | concentration of total β-amyloid compared to controls (7W WT APP751 CHO cells [1]; 1 μM) | concentration of Aβ1-40 compared to controls (7W WT APP751 CHO cells [1]; 5 μM) | concentration of Aβ1-42 compared to controls (7W WT APP751 CHO cells [1]; 5 μM) | concentration of total β-amyloid compared to controls (7W WT APP751 CHO cells [1]; 5 μM) | concentration of Aβ1-40 compared to controls (7W WT APP751 CHO cells [1]; 30 μM) | concentration of Aβ1-42 compared to controls (7W WT APP751 CHO cells [1]; 30 μM) | concentration of total β-amyloid compared to controls (7W WT APP751 CHO cells [1]; 30 μM)

CCOC(=O)C1=C(C)NC(C)=C(C(=O)OCC)C1c1ccc(Cl)cc1 [BTB 14328, diethyl 4-(4-chlorophenyl)-2,6-dimethyl-1,4-dihydropyridine-3,5-dicarboxylate]
significantly decreased: concentration of Aβ1-40 compared to controls (7W WT APP751 CHO cells [2]) | concentration of Aβ1-42 compared to controls (7W WT APP751 CHO cells [2]) | concentration of total β-amyloid (Aβ1-40+Aβ1-42) compared to controls (7W WT APP751 CHO cells [2])

CCOC(=O)C1=C(C)NC(C)=C(C(=O)OCC)C1c1ccc(-c2cc(C(F)(F)F)cc(C(F)(F)F)c2)o1 [CD 04170, diethyl 4-{5-[3,5-di(trifluoromethyl)phenyl]-2-furyl}-2,6-dimethyl-1,4-dihydro-pyridine-3,5-dicarboxylate]
significantly decreased: concentration of Aβ1-40 compared to controls (7W WT APP751 CHO cells [2]) | concentration of Aβ1-42 compared to controls (7W WT APP751 CHO cells [2]) | concentration of total β-amyloid (Aβ1-40+Aβ1-42) compared to controls (7W WT APP751 CHO cells [2])

O=C1C=C(c2ccccc2)CN(C2CCCCC2)C1=O [HTS 01512, 1-cyclohexyl-5-phenyl-1,6-dihydro-2,3-pyridinedione]
significantly decreased: concentration of Aβ1-40 compared to controls (7W WT APP751 CHO cells [2]) | concentration of Aβ1-42 compared to controls (7W WT APP751 CHO cells [2]) | concentration of total β-amyloid (Aβ1-40+Aβ1-42) compared to controls (7W WT APP751 CHO cells [2])

N#Cc1c(-c2cn(-c3ccccc3)nc2-c2ccccc2)cc(-c2ccccc2)[nH]c1=O [HTS 07578, 4-(1,3-diphenyl-1H-pyrazol-4-yl)-2-oxo-6-phenyl-1,2-dihydro-3-pyridinecarbonitrile]
significantly decreased: concentration of Aβ1-40 compared to controls (7W WT APP751 CHO cells [2]) | concentration of Aβ1-42 compared to controls (7W WT APP751 CHO cells [2]) | concentration of total β-amyloid (Aβ1-40+Aβ1-42) compared to controls (7W WT APP751 CHO cells [2])

N#Cc1c(-c2cccs2)cc(-c2ccccc2)[nH]c1=O [HTS 10306, 2-oxo-6-phenyl-4-(2-thienyl)-1,2-dihydro-3-pyridinecarbonitrile]
significantly decreased: concentration of Aβ1-40 compared to controls (7W WT APP751 CHO cells [2]) | concentration of Aβ1-42 compared to controls (7W WT APP751 CHO cells [2]) | concentration of total β-amyloid (Aβ1-40+Aβ1-42) compared to controls (7W WT APP751 CHO cells [2])

NC(=O)Nc1sc(-c2ccc(F)cc2)cc1C(N)=O [IKK-2 Inhibitor IV]
significantly decreased: concentration of Aβ1-40 compared to controls (7W WT APP751 CHO cells [1]; 500 nM) | concentration of Aβ1-42 compared to controls (7W WT APP751 CHO cells [1]; 500 nM) | concentration of total β-amyloid compared to controls (7W WT APP751 CHO cells [1]; 500 nM) | concentration of Aβ1-40 compared to controls (7W WT APP751 CHO cells [1]; 5 μM) | concentration of Aβ1-42 compared to controls (7W WT APP751 CHO cells [1]; 5 μM) | concentration of total β-amyloid compared to controls (7W WT APP751 CHO cells [1]; 5 μM)

CCOC(=O)C1=C(C)NC(C)=C(C(=O)OCC)C1c1ccc(Br)cc1 [JFD 01209, diethyl 4-(4-bromophenyl)-2,6-dimethyl-1,4-dihydropyridine-3,5-dicarboxylate]
significantly decreased: concentration of Aβ1-40 compared to controls (7W WT APP751 CHO cells [2]) | concentration of Aβ1-42 compared to controls (7W WT APP751 CHO cells [2]) | concentration of total β-amyloid (Aβ1-40+Aβ1-42) compared to controls (7W WT APP751 CHO cells [2])

CCOC(=O)C1=C(C)NC(C)=C(C(=O)OCC)C1c1ccc([N+](=O)[O-])cc1 [JFD 03266, diethyl 2,6-dimethyl-4-(4-nitrophenyl)-1,4-dihydropyridine-3,5-dicarboxylate]
significantly decreased: concentration of Aβ1-40 compared to controls (7W WT APP751 CHO cells [2]) | concentration of total β-amyloid (Aβ1-40+Aβ1-42) compared to controls (7W WT APP751 CHO cells [2])

CCOC(=O)C1=C(C)NC(C)=C(C(=O)OCC)C1c1ccc(C)cc1 [JFD 03282, diethyl 2,6-dimethyl-4-(4-methylphenyl)-1,4-dihydropyridine-3,5-dicarboxylate]
significantly decreased: concentration of Aβ1-40 compared to controls (7W WT APP751 CHO cells [2]) | concentration of Aβ1-42 compared to controls (7W WT APP751 CHO cells [2]) | concentration of total β-amyloid (Aβ1-40+Aβ1-42) compared to controls (7W WT APP751 CHO cells [2])

CC1=C(C#N)C(c2ccc(Cl)c(Cl)c2)C(C#N)=C(C)N1 [JFD 03292, 4-(3,4-dichlorophenyl)-2,6-dimethyl-1,4-dihydropyridine-3,5-dicarbonitrile]
significantly decreased: concentration of Aβ1-40 compared to controls (7W WT APP751 CHO cells [2]) | concentration of total β-amyloid (Aβ1-40+Aβ1-42) compared to controls (7W WT APP751 CHO cells [2])

COC(=O)C1=C(C)NC(C)=C(C(=O)OCCCN2CCC(c3ccccc3)(c3ccccc3)CC2)[C@@H]1c1cccc([N+](=O)[O-])c1.Cl [R-niguldipine]
significantly decreased: concentration of Aβ1-40 compared to controls (7W WT APP751 CHO cells [1]; 1 μM) | concentration of Aβ1-42 compared to controls (7W WT APP751 CHO cells [1]; 1 μM) | concentration of total β-amyloid compared to controls (7W WT APP751 CHO cells [1]; 1 μM) | concentration of Aβ1-40 compared to controls (7W WT APP751 CHO cells [1]; 5 μM) | concentration of Aβ1-42 compared to controls (7W WT APP751 CHO cells [1]; 5 μM) | concentration of total β-amyloid compared to controls (7W WT APP751 CHO cells [1]; 5 μM) | concentration of Aβ1-40 compared to controls (7W WT APP751 CHO cells [1]; 30 μM) | concentration of Aβ1-42 compared to controls (7W WT APP751 CHO cells [1]; 30 μM) | concentration of total β-amyloid compared to controls (7W WT APP751 CHO cells [1]; 30 μM)

C[C@@H]1CC[C@H]2[C@@H](C)C(=O)O[C@@H]3O[C@@]4(C)CC[C@@H]1[C@]32OO4 [artemisinin]
significantly decreased: concentration of Aβ1-40 compared to controls (7W WT APP751 CHO cells [1]; 1 μM) | concentration of Aβ1-42 compared to controls (7W WT APP751 CHO cells [1]; 1 μM) | concentration of total β-amyloid compared to controls (7W WT APP751 CHO cells [1]; 1 μM) | concentration of Aβ1-40 compared to controls (7W WT APP751 CHO cells [1]; 30 μM) | concentration of Aβ1-42 compared to controls (7W WT APP751 CHO cells [1]; 30 μM) | concentration of total β-amyloid compared to controls (7W WT APP751 CHO cells [1]; 30 μM)

CC1=C(O)C(=O)C=C2C1=CC=C1[C@@]2(C)CC[C@@]2(C)[C@@H]3C[C@](C)(C(=O)O)CC[C@]3(C)CC[C@]12C [celastrol]
significantly decreased: concentration of Aβ1-40 compared to controls (7W WT APP751 CHO cells [1]; 500 nM) | concentration of Aβ1-42 compared to controls (7W WT APP751 CHO cells [1]; 500 nM) | concentration of total β-amyloid compared to controls (7W WT APP751 CHO cells [1]; 500 nM) | concentration of Aβ1-40 compared to controls (7W WT APP751 CHO cells [1]; 5 μM) | concentration of Aβ1-42 compared to controls (7W WT APP751 CHO cells [1]; 5 μM) | concentration of total β-amyloid compared to controls (7W WT APP751 CHO cells [1]; 5 μM)

C=C1C(=O)O[C@@H]2C[C@@]3(C)CCCC(=C)[C@@H]3C[C@H]12 [isohelenin]
significantly decreased: concentration of Aβ1-40 compared to controls (7W WT APP751 CHO cells [1]; 5 μM) | concentration of Aβ1-42 compared to controls (7W WT APP751 CHO cells [1]; 5 μM) | concentration of total β-amyloid compared to controls (7W WT APP751 CHO cells [1]; 5 μM) | concentration of Aβ1-40 compared to controls (7W WT APP751 CHO cells [1]; 10 μM) | concentration of Aβ1-42 compared to controls (7W WT APP751 CHO cells [1]; 10 μM) | concentration of total β-amyloid compared to controls (7W WT APP751 CHO cells [1]; 10 μM)

C=C1C(=O)[C@@]23[C@H](O)C[C@@H]4C(C)(C)CC[C@H](O)[C@@]4(CO)[C@@H]2CC[C@@H]1[C@H]3O [kamebakaurin]
significantly decreased: concentration of Aβ1-40 compared to controls (7W WT APP751 CHO cells [1]; 10 μM) | concentration of Aβ1-42 compared to controls (7W WT APP751 CHO cells [1]; 10 μM) | concentration of total β-amyloid compared to controls (7W WT APP751 CHO cells [1]; 10 μM) | concentration of Aβ1-40 compared to controls (7W WT APP751 CHO cells [1]; 30 μM) | concentration of Aβ1-42 compared to controls (7W WT APP751 CHO cells [1]; 30 μM) | concentration of total β-amyloid compared to controls (7W WT APP751 CHO cells [1]; 30 μM)
